Measurements reported in ChEMBL document CHEMBL4507319 (2021).

Columns and labels:
[1] = target: Tyrosine-protein kinase ABL2 (Homo sapiens) (UniProt P42684); settings: Compound concentration 1000.0 nM
[2] = target: T1, Activin receptor type-1 (Homo sapiens) (UniProt Q04771); settings: Compound concentration 1000.0 nM
T1 sequence (whole entry): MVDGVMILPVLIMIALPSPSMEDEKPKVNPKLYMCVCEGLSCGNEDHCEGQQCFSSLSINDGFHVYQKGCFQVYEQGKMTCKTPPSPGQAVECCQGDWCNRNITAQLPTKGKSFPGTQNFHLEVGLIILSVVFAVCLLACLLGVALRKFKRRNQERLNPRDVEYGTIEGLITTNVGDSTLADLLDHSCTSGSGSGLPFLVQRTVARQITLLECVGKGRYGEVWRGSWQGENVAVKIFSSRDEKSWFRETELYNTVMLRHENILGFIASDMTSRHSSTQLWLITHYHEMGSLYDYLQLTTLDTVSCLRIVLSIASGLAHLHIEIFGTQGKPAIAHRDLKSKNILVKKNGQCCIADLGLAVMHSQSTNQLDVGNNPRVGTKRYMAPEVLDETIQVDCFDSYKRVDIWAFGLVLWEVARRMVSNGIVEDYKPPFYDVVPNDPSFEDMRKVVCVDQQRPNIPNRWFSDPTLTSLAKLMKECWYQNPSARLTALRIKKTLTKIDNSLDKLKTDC

[3] = target: Atypical kinase COQ8A, mitochondrial (Homo sapiens) (UniProt Q8NI60); settings: Compound concentration 1000.0 nM
[4] = target: Calcium/calmodulin-dependent protein kinase type 1 (Homo sapiens) (UniProt Q14012); settings: Compound concentration 1000.0 nM
[5] = target: Peripheral plasma membrane protein CASK (Homo sapiens) (UniProt O14936); settings: Compound concentration 1000.0 nM
[6] = target: Casein kinase I isoform delta (Homo sapiens) (UniProt P48730); settings: Compound concentration 1000.0 nM
[7] = target: Epidermal growth factor receptor (Homo sapiens) (UniProt P00533); settings: Compound concentration 1000.0 nM
[8] = target: G protein-coupled receptor kinase 4 (Homo sapiens) (UniProt P32298); settings: Compound concentration 1000.0 nM
[9] = target: Glycogen synthase kinase-3 beta (Homo sapiens) (UniProt P49841); settings: Compound concentration 1000.0 nM
[10] = target: T2, Homeodomain-interacting protein kinase 4 (Homo sapiens) (UniProt Q8NE63); settings: Compound concentration 1000.0 nM
T2 sequence (whole entry): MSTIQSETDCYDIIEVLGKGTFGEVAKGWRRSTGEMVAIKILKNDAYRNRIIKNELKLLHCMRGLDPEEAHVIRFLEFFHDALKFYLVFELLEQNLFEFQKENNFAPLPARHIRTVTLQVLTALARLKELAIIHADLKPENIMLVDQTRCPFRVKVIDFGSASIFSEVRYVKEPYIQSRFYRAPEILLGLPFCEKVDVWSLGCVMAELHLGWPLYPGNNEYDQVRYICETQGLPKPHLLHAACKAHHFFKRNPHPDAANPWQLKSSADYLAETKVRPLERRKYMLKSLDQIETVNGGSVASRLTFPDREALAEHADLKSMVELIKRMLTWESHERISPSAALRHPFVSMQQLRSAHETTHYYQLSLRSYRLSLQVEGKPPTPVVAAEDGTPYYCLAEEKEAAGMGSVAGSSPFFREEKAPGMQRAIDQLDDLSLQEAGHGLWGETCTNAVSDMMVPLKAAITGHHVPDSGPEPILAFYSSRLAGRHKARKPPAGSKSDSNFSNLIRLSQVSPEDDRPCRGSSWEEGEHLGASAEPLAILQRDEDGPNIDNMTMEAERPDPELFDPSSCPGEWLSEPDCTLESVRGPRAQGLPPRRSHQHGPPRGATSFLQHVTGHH

[11] = target: Interleukin-1 receptor-associated kinase 1 (Homo sapiens) (UniProt P51617); settings: Compound concentration 1000.0 nM
[12] = target: LIM domain kinase 2 (Homo sapiens) (UniProt P53671); settings: Compound concentration 1000.0 nM
[13] = target: T3, Serine/threonine-protein kinase STK11 (Homo sapiens) (UniProt Q15831); settings: Compound concentration 1000.0 nM
T3 sequence (whole entry): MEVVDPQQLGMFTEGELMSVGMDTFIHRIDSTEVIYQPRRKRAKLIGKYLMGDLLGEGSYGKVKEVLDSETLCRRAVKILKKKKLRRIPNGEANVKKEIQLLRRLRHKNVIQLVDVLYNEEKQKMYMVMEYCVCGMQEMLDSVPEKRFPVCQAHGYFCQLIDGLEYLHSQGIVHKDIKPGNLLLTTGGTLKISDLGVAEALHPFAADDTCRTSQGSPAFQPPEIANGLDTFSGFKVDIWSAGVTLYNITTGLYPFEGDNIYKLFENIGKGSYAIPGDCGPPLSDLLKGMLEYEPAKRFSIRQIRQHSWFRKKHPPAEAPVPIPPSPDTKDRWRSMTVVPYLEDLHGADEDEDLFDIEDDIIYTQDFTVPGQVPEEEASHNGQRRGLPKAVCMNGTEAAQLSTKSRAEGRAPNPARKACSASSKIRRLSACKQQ

[14] = target: T4, Dual specificity mitogen-activated protein kinase kinase 6 (Homo sapiens) (UniProt P52564); settings: Compound concentration 1000.0 nM
T4 sequence (whole entry): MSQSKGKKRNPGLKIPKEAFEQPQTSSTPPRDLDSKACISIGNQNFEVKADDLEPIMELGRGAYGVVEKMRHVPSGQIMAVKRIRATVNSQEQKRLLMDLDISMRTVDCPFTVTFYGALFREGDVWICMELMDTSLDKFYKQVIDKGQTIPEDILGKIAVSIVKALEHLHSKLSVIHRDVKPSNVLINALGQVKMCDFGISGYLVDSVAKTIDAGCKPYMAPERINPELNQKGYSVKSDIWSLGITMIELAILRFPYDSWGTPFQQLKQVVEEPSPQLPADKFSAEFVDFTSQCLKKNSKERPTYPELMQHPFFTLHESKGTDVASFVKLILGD

[15] = system: Phosphatidylinositol 4,5-bisphosphate 3-kinase catalytic subunit alpha isoform (Homo sapiens), P42336 [E545A]; settings: Compound concentration 1000.0 nM
[16] = target: Ribosomal protein S6 kinase alpha-2 (Homo sapiens, UniProt Q15349); settings: Compound concentration 1000.0 nM
[17] = target: Activated CDC42 kinase 1 (Homo sapiens) (UniProt Q07912); settings: Compound concentration 1000.0 nM
[18] = target: NT-3 growth factor receptor (Homo sapiens) (UniProt Q16288); settings: Compound concentration 1000.0 nM
[19] = target: Non-receptor tyrosine-protein kinase TYK2 (Homo sapiens) (UniProt P29597); settings: Compound concentration 1000.0 nM
[20] = target: D(4) dopamine receptor (Homo sapiens) (UniProt P21917); settings: Compound concentration 10.0 uM
Sequence of D(4) dopamine receptor (Homo sapiens) (P21917 whole entry): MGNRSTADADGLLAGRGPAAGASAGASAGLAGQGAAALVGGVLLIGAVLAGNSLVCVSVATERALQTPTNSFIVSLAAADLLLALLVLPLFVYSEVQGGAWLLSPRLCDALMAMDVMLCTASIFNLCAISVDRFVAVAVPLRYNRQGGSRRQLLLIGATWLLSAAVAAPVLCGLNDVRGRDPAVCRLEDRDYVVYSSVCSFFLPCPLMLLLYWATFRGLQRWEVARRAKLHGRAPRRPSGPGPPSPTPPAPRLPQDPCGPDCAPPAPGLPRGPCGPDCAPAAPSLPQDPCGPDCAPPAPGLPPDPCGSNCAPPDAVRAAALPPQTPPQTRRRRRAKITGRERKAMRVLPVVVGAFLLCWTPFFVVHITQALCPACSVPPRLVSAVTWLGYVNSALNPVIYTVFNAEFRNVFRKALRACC

Sequence of Calcium/calmodulin-dependent protein kinase type 1 (Homo sapiens) (Q14012 whole entry, looked up): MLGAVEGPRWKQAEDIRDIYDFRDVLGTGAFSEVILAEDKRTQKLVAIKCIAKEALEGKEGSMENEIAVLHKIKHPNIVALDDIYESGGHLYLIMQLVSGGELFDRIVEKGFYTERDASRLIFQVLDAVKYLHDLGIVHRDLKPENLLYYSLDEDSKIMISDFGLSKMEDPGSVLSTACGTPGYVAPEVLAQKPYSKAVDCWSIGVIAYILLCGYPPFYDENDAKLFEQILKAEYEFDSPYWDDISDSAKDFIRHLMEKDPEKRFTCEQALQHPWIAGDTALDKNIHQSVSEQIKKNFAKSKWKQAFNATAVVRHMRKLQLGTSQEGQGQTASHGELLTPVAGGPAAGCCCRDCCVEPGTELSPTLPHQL
Sequence of Activated CDC42 kinase 1 (Homo sapiens) (Q07912 whole entry, looked up): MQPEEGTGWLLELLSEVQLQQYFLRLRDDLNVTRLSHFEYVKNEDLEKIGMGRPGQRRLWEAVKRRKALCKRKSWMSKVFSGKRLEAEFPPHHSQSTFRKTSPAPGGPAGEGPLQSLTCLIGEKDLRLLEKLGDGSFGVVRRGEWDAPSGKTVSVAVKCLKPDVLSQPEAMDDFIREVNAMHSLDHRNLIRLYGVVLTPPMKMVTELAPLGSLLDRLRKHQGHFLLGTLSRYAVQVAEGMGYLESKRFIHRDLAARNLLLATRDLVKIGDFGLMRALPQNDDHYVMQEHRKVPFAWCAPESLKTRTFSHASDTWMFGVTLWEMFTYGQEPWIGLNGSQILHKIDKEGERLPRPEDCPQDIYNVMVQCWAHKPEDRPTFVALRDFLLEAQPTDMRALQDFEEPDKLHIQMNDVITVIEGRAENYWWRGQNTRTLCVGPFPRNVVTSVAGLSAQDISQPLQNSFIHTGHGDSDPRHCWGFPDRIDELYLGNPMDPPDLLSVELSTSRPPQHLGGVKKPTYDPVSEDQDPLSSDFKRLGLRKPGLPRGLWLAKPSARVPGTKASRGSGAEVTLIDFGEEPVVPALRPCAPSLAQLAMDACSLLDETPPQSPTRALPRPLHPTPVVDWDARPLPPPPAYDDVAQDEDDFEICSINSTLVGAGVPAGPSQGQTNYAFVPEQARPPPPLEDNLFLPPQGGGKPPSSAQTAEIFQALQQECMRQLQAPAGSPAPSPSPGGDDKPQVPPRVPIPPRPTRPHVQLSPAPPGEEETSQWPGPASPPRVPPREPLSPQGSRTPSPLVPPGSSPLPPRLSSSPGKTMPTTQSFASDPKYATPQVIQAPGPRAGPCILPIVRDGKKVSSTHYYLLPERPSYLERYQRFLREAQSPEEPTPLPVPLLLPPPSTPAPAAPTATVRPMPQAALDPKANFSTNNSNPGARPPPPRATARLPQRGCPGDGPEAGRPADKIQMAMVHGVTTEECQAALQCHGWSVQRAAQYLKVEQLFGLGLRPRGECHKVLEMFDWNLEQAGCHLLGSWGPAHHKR
Sequence of Glycogen synthase kinase-3 beta (Homo sapiens) (P49841 whole entry, looked up): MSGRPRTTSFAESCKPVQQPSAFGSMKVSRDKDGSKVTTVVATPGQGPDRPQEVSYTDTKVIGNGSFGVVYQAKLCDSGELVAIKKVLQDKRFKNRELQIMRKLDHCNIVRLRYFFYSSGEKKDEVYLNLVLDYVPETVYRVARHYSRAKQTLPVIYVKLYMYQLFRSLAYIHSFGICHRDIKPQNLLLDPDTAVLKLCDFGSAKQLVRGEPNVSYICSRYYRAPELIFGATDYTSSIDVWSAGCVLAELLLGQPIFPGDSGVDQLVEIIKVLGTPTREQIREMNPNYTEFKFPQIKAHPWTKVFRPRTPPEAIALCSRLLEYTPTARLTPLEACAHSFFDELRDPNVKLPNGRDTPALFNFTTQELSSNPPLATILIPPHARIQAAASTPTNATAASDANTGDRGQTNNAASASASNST
Sequence of Casein kinase I isoform delta (Homo sapiens) (P48730 whole entry, looked up, canonical isoform): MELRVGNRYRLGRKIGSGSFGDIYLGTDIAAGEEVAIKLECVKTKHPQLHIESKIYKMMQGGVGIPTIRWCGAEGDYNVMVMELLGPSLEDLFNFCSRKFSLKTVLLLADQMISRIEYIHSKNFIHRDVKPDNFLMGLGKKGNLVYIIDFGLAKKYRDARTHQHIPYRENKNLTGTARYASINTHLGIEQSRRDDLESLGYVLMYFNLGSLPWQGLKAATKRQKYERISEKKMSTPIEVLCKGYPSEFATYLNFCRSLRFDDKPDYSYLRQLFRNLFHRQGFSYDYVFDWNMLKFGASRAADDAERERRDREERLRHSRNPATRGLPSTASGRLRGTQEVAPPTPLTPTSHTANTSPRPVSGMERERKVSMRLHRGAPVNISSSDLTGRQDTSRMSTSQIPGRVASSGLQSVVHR
Sequence of Tyrosine-protein kinase ABL2 (Homo sapiens) (P42684 whole entry): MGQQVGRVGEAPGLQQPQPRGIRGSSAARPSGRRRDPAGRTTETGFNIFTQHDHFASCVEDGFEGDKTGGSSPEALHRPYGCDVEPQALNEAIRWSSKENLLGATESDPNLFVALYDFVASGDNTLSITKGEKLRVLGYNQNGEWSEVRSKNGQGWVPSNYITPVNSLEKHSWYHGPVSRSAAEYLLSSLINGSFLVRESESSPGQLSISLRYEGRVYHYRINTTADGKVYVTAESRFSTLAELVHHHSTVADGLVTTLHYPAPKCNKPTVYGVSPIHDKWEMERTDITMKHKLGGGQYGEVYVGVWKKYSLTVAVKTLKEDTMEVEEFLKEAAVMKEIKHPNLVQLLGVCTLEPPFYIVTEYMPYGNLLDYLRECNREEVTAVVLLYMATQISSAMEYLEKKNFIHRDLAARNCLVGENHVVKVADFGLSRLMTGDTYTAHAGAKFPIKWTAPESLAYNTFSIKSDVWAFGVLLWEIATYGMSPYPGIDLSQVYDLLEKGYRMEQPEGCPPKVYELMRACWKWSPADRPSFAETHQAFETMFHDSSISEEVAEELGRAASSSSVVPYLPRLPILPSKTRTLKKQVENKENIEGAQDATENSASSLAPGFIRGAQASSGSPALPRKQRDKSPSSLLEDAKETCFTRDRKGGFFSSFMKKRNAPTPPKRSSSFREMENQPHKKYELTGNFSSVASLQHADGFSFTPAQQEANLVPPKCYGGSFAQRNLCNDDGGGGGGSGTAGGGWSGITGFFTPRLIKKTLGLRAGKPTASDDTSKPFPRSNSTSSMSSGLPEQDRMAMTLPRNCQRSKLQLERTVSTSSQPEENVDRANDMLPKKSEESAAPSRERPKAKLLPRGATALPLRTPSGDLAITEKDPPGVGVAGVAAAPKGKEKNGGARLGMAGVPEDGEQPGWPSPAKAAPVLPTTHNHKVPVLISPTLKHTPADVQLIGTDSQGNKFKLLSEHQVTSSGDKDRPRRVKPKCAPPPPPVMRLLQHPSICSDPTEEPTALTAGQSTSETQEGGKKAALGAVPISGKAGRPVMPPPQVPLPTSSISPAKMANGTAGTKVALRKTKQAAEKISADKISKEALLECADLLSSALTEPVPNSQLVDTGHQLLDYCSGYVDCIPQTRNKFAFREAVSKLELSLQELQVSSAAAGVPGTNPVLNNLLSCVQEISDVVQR
Sequence of Peripheral plasma membrane protein CASK (Homo sapiens) (O14936 whole entry, canonical isoform): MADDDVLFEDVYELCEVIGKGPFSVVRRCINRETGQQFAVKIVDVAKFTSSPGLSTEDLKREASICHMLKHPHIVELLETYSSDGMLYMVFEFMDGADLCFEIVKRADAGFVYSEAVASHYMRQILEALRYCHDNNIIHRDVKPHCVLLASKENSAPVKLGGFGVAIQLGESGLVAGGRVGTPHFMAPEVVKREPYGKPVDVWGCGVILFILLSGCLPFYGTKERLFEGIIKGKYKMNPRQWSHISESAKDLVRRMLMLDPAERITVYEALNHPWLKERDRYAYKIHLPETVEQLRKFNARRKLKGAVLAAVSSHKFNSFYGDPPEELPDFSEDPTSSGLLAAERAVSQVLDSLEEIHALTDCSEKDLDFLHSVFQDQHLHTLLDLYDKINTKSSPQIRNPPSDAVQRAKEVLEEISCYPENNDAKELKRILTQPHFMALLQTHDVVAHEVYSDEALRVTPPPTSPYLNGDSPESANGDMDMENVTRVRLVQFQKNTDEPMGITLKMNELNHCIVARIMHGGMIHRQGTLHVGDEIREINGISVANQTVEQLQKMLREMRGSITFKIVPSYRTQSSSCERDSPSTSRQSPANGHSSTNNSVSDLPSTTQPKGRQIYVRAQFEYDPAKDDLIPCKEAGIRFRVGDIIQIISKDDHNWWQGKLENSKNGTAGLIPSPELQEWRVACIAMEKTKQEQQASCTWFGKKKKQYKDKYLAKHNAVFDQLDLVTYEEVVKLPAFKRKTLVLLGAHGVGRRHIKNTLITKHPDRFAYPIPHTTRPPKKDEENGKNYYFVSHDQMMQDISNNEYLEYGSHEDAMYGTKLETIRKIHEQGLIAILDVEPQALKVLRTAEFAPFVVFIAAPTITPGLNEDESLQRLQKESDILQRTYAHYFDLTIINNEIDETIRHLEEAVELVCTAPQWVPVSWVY

CC1=C(C#N)C(c2ccc3c(c2)c(NC(=O)c2ccccc2C)nn3C)C(C#N)=C(C)N1 [BAY-974]
inactive: residual activity [1] 99% | residual activity [2] 99% | residual activity [3] 100% | residual activity [4] 98% | residual activity [5] 67% | residual activity [6] 89% | residual activity [7] 84% | residual activity [8] 100% | residual activity [9] 81% | residual activity [10] 80% | residual activity [11] 75% | residual activity [12] 99% | residual activity [13] 89% | residual activity [14] 95% | residual activity [15] 71% | residual activity [16] 94% | residual activity [17] 86% | residual activity [18] 83% | residual activity [19] 88% | inhibition [20] 0.21%

CCc1ccccc1C(=O)Nc1n[nH]c2c(C)c(F)c(C3C(C#N)=C(C)N(C)C(C)=C3C#N)cc12 [BAY-3827]
inactive: residual activity [1] 92% | residual activity [2] 100% | residual activity [3] 84% | residual activity [4] 76% | residual activity [5] 81% | residual activity [6] 100% | residual activity [7] 85% | residual activity [8] 100% | residual activity [9] 100% | residual activity [10] 100% | residual activity [11] 100% | residual activity [12] 99% | residual activity [13] 100% | residual activity [14] 98% | residual activity [15] 100% | residual activity [16] 100% | residual activity [17] 81% | residual activity [18] 100% | residual activity [19] 100% | inhibition [20] -0.18%
